Laboratory results: patent US6887896B1, “7-[(7-Alkoxy)-chrom-3-en-6-yl]-heptatrienoic acid and 7-[(3-alkoxy)-5,6-dihydronaphthalen-2-yl]-heptatrienoic acid derivatives having serum glucose reducing activity” (Allergan, Inc., priority 2003, dated 2005)

Key:
[1] = target: T1, RARα (Homo sapiens, UniProt P10276); test: ligand binding assay, RARα; details: for Ki: read-out: RAR Bind. Ki α; for Kd: Table 9 (Formula F), read-out: RAR α Kd
T1 sequence (P10276 1-462): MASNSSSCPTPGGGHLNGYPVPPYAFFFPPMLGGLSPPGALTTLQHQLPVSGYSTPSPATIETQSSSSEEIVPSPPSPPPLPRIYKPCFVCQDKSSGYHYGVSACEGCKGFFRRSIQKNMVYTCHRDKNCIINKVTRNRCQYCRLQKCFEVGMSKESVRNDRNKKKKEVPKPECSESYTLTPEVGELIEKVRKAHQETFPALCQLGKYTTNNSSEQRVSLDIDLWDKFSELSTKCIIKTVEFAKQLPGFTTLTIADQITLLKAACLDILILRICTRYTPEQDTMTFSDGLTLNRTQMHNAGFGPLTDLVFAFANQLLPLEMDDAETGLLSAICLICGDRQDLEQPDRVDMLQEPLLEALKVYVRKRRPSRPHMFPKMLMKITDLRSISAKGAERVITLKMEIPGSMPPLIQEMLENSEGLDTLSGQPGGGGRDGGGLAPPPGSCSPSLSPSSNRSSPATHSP
Source text: (§1) Specifically, one such assay is a chimeric receptor transactivation assay which tests for agonist-like activity in the R RAPE and RAR7 receptor subtypes, and which is based on work published by Feigner, P. L. and Holm, M (1989) Focus, 112 is described in detail in U.S. Pat. No. 5,455,265. The specification of U.S. Pat. No. 5,455,265 is hereby expressly incorporated by reference. A holoreceptor transactivation assay and a ligand binding assay which measure the antagonist/agonist like activity of the compounds of the invention, or their ability to bind to the several retinoid receptor subtypes, respectively, are described in published PCT Application No. WO WO93/11755 (particularly on pages 30-33 and 37-41) published on Jun. 24, 1993, the specification of which is also incorporated herein by reference. A detailed experimental procedure for holoreceptor transactivations has been described by Heyman et al. Cell 68, 397-406, (1992); Allegretto et al. J. Biol. Chem. 268, 26625-26633, and Mangelsdorf et al. The Retinoids: Biology, Chemistry and Medicine, pp 319-349, Raven Press Ltd., New York, which are expressly incorporated herein by reference. The results obtained in this assay are expressed in EC50 numbers, as they are also in the chimeric receptor transactivation assay. The results of the ligand binding assay are expressed in Ki numbers. (See Cheng et al. Biochemical Pharmacology Vol. 22 pp 3099-3108, expressly incorporated herein by reference.)
(§2) Generally speaking, in the tables disclosing the results of transactivation and binding assays the numbers in parentheses indicate efficacy as a percentage compared to the standard compound, (2E,4E,1′S,2′S)-3-methyl-5-[2′-methyl-2′-(5,5,8,8-tetramethyl-5,6,7,8-tetrahydro-naphthalen-2-yl)cyclopropyl]-penta-2,4-dienoic acid and the other numbers indicate the measured EC50 and K; in nanomolar concentration.

[2] = target: T2, RARβ (Homo sapiens, UniProt P10826); test: chimeric receptor transactivation assay, RARβ; type: cell-based; details: for EC50: chimeric receptor transactivation, read-out: RAR Trans. EC50 β; for Emax: percentage compared to the standard compound, read-out: RAR Trans. efficacy (number in parentheses) β
T2 sequence (P10826 183-417 limits assumed): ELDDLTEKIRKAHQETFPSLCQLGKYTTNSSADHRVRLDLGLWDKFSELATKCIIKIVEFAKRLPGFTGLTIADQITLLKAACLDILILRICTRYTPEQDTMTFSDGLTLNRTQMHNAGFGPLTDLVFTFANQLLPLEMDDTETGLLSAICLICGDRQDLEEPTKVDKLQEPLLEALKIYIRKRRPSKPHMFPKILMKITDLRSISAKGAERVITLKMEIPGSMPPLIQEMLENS
Source text: as §1
Efficacy in a transactivation assay is expressed as a percentage of the maximum potency attained by the compound compared to a standard which, in this case, is the compound named (2E,4E,1′S,2′S)-3-methyl-5-[2′-methyl-2′-(5,5,8,8-tetramethyl-5,6,7,8-tetrahydro-naphthalen-2-yl)-cyclopropyl]-penta-2,4-dienoic acid. This standard compound is described in U.S. Pat. No. 6,114,533.
The specification of this application for patent is organized in several sections in accordance with structural Formulas A through F each of which discloses a group of preferred compounds within the scope of the invention. Tables that disclose the activity of certain exemplary compounds of the invention in the above-described RXR receptor transactivation and binding assays are found in the corresponding sections. […] The transactivation data pertaining to the activation of RXR receptors were obtained in the holoreceptor assay.
as §2

Row | Compound | Ki [1] [nM] | EC50 [2] [nM] | Emax [2] [%] | Kd [1] [nM]
1 | CCOc1cc2c(cc1\C(C)=C(F)/C=C/C(C)=C/C(=O)O)C(C)=CCC2(C)C | 261 | 316 | 26 | 
2 | COc1cc2c(cc1\C(C)=C(F)/C=C/C(C)=C/C(=O)O)C(C(C)C)=CC(C)(C)O2 [Compound 121, (2E,4E,6E)-6-Fluoro-7-(4-isopropyl-7-methoxy-2,2-dimethyl-2H-chromen-6-yl)-3-methyl-octa-2,4,6-trienoic acid] | 692 | 46600 |  | 
3 | COc1cc2c(cc1\C(C)=C(F)/C=C/C(C)=C/C(=O)O)C(C(C)(C)C)=CC(C)(C)O2 [Compound 122, 7-(4-tert-Butyl-7-methoxy-2,2-dimethyl-2H-chromen-6-yl)-6-fluoro-3-methyl-octa-2E,4E,6E-trienoic acid] | 800 |  |  | 
4 | CCOc1cc2c(cc1\C(C)=C(F)/C=C/C(C)=C/C(=O)O)C(CC)=CC(C)(C)O2 [Compound 123, 7-(7-Ethoxy-4-ethyl-2,2-dimethyl-2H-chromen-6-yl)-6-fluoro-3-methyl-octa-2E,4E,6E-trienoic acid] | > 10000 |  |  | 
5 | CCOc1c(\C(CC)=C(F)/C=C/C(C)=C/C(=O)O)cc2c(c1Cl)OC(C)(C)C=C2C(C)C [Compound 173] | 102 |  |  | 
6 | CC(/C=C/C(F)=C(/C)c1cc2c(c(Cl)c1OC(C)C)OC(C)(C)C=C2C(C)C)=C\C(=O)O [Compound 174] | 532 |  |  | 
7 | CCOc1cc2c(cc1\C(=C/C=C/C(C)=C/C(=O)O)CC)C(C)=CCC2(C)C [Compound A-16, 7-(3-Ethoxy-5,5,8-trimethyl-5,6-dihydronaphthalen-2-yl)-3-methyl-nona-2E,4E,6Z-trienoic acid] | 578 | 242 | 21 | 
8 | CCOc1cc2c(cc1\C(C)=C/C=C/C(C)=C/C(=O)O)C(C(C)(C)C)=CCC2(C)C [Compound A-17, 7-(8-tert-Butyl-3-ethyloxy-5,5-dimethyl-5,6-dihydronaphthalen-2-yl)-3-methyl-octa-2E,4E,6Z-trienoic acid] | 861 | 50 | 7 | 
9 | CCOc1cc2c(cc1\C(=C/C=C/C(C)=C/C(=O)O)CC)C(C(C)(C)C)=CCC2(C)C [Compound A-18, 7-(8-tert-butyl-3-ethyoxy-5,5-dimethyl-5,6-dihydronaphthalen-2-yl)-3-methyl-nona-2E,4E,6Z-trienoic acid] | 442 | 15 | 7 | 
10 | CCCOc1cc2c(cc1\C(C)=C(F)/C=C/C(C)=C/C(=O)O)C(C(C)C)=CCC2(C)C [Compound A-80] | 841 | 80 | 13 | 
11 | CCOc1c(\C(C)=C(F)/C=C/C(C)=C/C(=O)O)cc2c(c1Br)C(C)(C)CC=C2C(C)C [Compound A-169, (2E,4E,6E)-7-(4-Bromo-3-ethoxy-8-isopropyl-5,5-dimethyl-5,6-dihydro-naphthalen-2-yl)-6-fluoro-3-methyl-octa-2.4,6-trienoic acid] |  |  |  | 70
12 | CCOc1c(\C(C)=C(F)/C=C/C(C)=C/C(=O)O)cc2c(c1Cl)C(C)(C)CC=C2C(C)C [Compound A-177, (2E,4E,6E)-7-(4-Chloro-3-ethoxy-8-isopropyl-5,5-dimethyl-5,6-dihydronaphthalen-2-yl)6-fluoro-3-methyl-octa-2,4,6-trienoic acid] |  |  |  | 60

Continued, values first:

Row | Ki [1] [nM] | EC50 [2] [nM] | Emax [2] [%] | Kd [1] [nM] | Compound
13 | 8900 | 845 | 34 |  | CCC1=CC(C)(C)Oc2cc(OC)c(\C(C)=C/C=C/C(C)=C/C(=O)O)cc21 [Compound 42, 7-(4-Ethyl-7-methoxy-2,2-dimethyl-2H-chromen-6-yl)-3-methyl-octa-2E,4E,6Z-trienoic acid]
14 | 215 | 75 | 25 |  | CC/C(=C/C=C/C(C)=C/C(=O)O)c1cc2c(cc1OC)OC(C)(C)C=C2C(C)C [Compound 44, 7-(4-Isopropyl-7-methoxy-22-dimethyl-2H-chromen-6-yl)-3-methyl-nona-2E,4E,6Z-trienoic acid]
15 | 623 | 305 | 6 |  | CCOc1cc2c(cc1\C(=C/C=C/C(C)=C/C(=O)O)CC)C(C)=CC(C)(C)O2 [Compound 46, 7-(7-Ethoxy-2,2,4-trimethyl-2H-chromen-6-yl)-3-methyl-nona-2E,4E,6Z-trienoic acid]
16 | 1000 | 132 | 12 |  | COc1c(\C(C)=C/C=C/C(C)=C/C(=O)O)cc2c(c1Cl)OC(C)(C)C=C2C(C)C [Compound 49, 7-(8-Chloro-4-isopropyl-7-methoxy-2,2-dimethyl-2H-chromen-6-y)-3-methyl-octa-2E,4E,6Z-trienoic acid]
17 | 738 |  |  |  | CCOc1c(\C(C)=C/C=C/C(C)=C/C(=O)O)cc2c(c1Cl)OC(C)(C)C=C2C(C)C [Compound 50, 7-(8-Chloro-4-isopropyl-7-ethoxy-2,2-dimethyl-2H-chromen-6-yl)-3-methyl-octa-2E,4E,6Z-trienoic acid]
18 | 422 |  |  |  | CCOc1c(\C(=C/C=C/C(C)=C/C(=O)O)CC)cc2c(c1Cl)OC(C)(C)C=C2C(C)C [Compound 51]
19 | 4100 |  |  |  | CCC1=CC(C)(C)Oc2cc(OC)c(\C(C)=C(F)/C=C/C(C)=C/C(=O)O)cc21 [Compound 120, 7-(4Ethyl-7-methoxy-2,2-dimethyl-2H-chromen-6-yl)-6-fluoro-3-methyl-octa-2E,4E,6E-trienoic acid]
20 | 837 | 116 | 13 |  | CC/C(=C(F)/C=C/C(C)=C/C(=O)O)c1cc2c(cc1OC)OC(C)(C)C=C2C(C)(C)C [Compound 131, 7-(4-tert-Butyl-7-methoxy-2,2-dimethyl-2H-chromen-6-yl)-6-fluoro-3-methyl-nona-2E,4E,6E-trienoic acid]
21 | 148 | 710 | 8 |  | CCOc1cc2c(cc1\C(CC)=C(F)/C=C/C(C)=C/C(=O)O)C(C)=CC(C)(C)O2 [Compound 132, 7-(7-Ethoxy-2,2,4-trimethyl-2H-chromen-6-yl)-6-fluoro-3-methyl-nona-2E,4E,6E-trienoic acid]
22 | 3400 |  |  |  | COc1c(\C(C)=C(F)/C=C/C(C)=C/C(=O)O)cc2c(c1Cl)OC(C)(C)C=C2C(C)C [Compound 170, 7-(8-Chloro-4-isopropyl-7-methoxy-2,2-dimethyl-2H-chromen-6-yl)-6-fluoro-3-methyl-octa-2E,4E,6E-trienoic acid]
23 | 404 |  |  |  | CCOc1c(\C(C)=C(F)/C=C/C(C)=C/C(=O)O)cc2c(c1Cl)OC(C)(C)C=C2C(C)C [Compound 172, 7-(8-Chloro-4-isopropyl-7-ethoxy-2,2-dimethyl-2H-chromen-6-yl)-6-fluoro-3-methyl-octa-2E,4E,6E-trienoic acid]
24 | 592 | 203 | 23 |  | CC(/C=C/C(F)=C(/C)c1cc2c(cc1OCC1CC1)C(C)(C)CC=C2C(C)C)=C\C(=O)O [Compound A-81, (2E,4E,6E)-6-Fluoro-3-(4-dimethyl-6-(cyclopropyl)methoxy-1-isopropyl-3,4-dihydronaphthalen-7-yl)-3-methyl-2,4.6-octa-trienoic acid]
